The values below are quoted from earlier work in US20130252988A1, “COMPOSITIONS AND METHODS FOR TREATING MYELOFIBROSIS” (TARGEGEN, INC., priority 2010, published 2013).

Each structure is given as a SMILES string.

The conditions of this series: Kantarjian H M et al., Blood 110:3540-3546, 2007; cited from earlier work.

For the molecule `Cc1cn(-c2cc(NC(=O)c3ccc(C)c(Nc4nccc(-c5cccnc5)n4)c3)cc(C(F)(F)F)c2)cn1` [nilotinib], the “Asymptomatic hyperamylasemia, sometimes with hyperlipasemia, as toxicity” value is on record as “observed”.
